Source: PubChem BioAssay (NCI)
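A five-concentration, 48-hour dose response in 96-well plates underlies each endpoint, interpolated linearly between surrounding concentrations. GI50: concentration for 50% inhibition of growth. TGI: concentration producing complete growth inhibition.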

How the values were obtained:
Test in all cases: NCI anticancer screen, dose series, 48 h
[1] = system: KM12 colon
[2] = system: SF-295 CNS
[3] = system: CCRF-CEM leukemia
[4] = system: SK-MEL-2 melanoma
[5] = system: T-47D breast
[6] = system: NCI-H226 lung
[7] = system: NCI-H522 lung
[8] = system: SK-MEL-5 melanoma
[9] = system: SR leukemia
[10] = system: ACHN renal
[11] = system: NCI-H23 lung
[12] = system: HL-60(TB) leukemia

Row | Compound | TGI [1] | TGI [2] | TGI [3] | TGI [4] | TGI [5] | TGI [6] | TGI [7] | TGI [8] | TGI [9] | TGI [10] | TGI [11] | TGI [12] | GI50 [2] | GI50 [3] | GI50 [4] | GI50 [5] | GI50 [7] | GI50 [8] | GI50 [10] | GI50 [11]
1 | CNC(=O)N(CCC#N)CCN(CCN(C(=O)NC)c1ccccc1)C(=O)NC | > 100 µM | > 100 µM | > 100 µM | > 100 µM | > 100 µM | > 100 µM | > 100 µM | > 100 µM | > 100 µM | > 100 µM | > 100 µM | – | – | – | – | – | – | – | – | –
2 | O=C(O)/C(=C\c1ccccc1)Cc1ccccc1 | > 100 µM | > 100 µM | > 100 µM | > 100 µM | > 100 µM | > 100 µM | > 100 µM | > 100 µM | – | > 100 µM | > 100 µM | > 100 µM | – | – | – | – | – | – | – | –
3 | Nc1ncnc2c1ncn2CC(OCP(=O)(O)O)Oc1ccccc1 (configuration not stated) | > 100 µM | > 100 µM | > 100 µM | > 100 µM | > 100 µM | > 100 µM | – | > 100 µM | – | > 100 µM | – | – | – | – | – | – | – | – | – | –
4 | Cc1sc(N=Nc2c(O)[nH]c3ccccc23)nc1-c1ccccc1 | 43.7 µM | 29.1 µM | – | 49.5 µM | 33.1 µM | > 100 µM | – | 33.9 µM | – | 31.1 µM | 34.6 µM | 25 µM | – | – | – | – | – | – | – | –
5 | Cc1cc(S(=O)(=O)Nc2nc(N)n(C)n2)c(S)cc1Cl | > 10 µM | > 10 µM | > 10 µM | > 10 µM | > 10 µM | > 10 µM | > 10 µM | > 10 µM | – | > 10 µM | > 10 µM | > 10 µM | – | – | – | – | – | – | – | –
6 | CNC(Cc1ccccc1)c1cccc(OC)c1O (configuration not stated) | > 100 µM | > 100 µM | – | > 100 µM | 60.4 µM | > 100 µM | > 100 µM | > 100 µM | > 100 µM | > 100 µM | > 100 µM | – | – | – | – | – | – | – | – | –
7 | COc1cc(/C=C2\NC(=O)N(/C=C3\C(=O)Oc4ccccc4C3=O)C2=O)ccc1O | > 100 µM | > 100 µM | 92.6 µM | > 100 µM | > 100 µM | > 100 µM | > 100 µM | > 100 µM | – | > 100 µM | > 100 µM | 62 µM | – | – | – | – | – | – | – | –
8 | COc1cc2cc(C(=O)N3CC(COS(C)(=O)=O)c4c3cc([N+](=O)[O-])c3ccccc43)[nH]c2c(OC)c1OC (configuration not stated) | > 31.6 µM | > 31.6 µM | > 31.6 µM | > 31.6 µM | > 31.6 µM | > 100 µM | > 31.6 µM | – | – | > 31.6 µM | > 31.6 µM | – | – | – | – | – | – | – | – | –
9 | Clc1ccc2c(NCCNc3nc(-c4ccccc4)cc(-c4ccccc4)n3)ccnc2c1 | – | 3.39 µM | 5.83 µM | 3.62 µM | 3.47 µM | – | 3.76 µM | 3.2 µM | – | 3.1 µM | 3.8 µM | – | 1.76 µM | 2.32 µM | 1.84 µM | 1.5 µM | 1.87 µM | 1.79 µM | 1.7 µM | 1.87 µM
10 | OCCOCCO[P+]1(OCCOCCO)n2c3ccc2C(c2ccccc2)=C2C=CC(=N2)C(c2ccccc2)=c2ccc(n21)=C(c1ccccc1)C1=NC(=C3c2ccccc2)C=C1 | 0.429 µM | 1.03 µM | 1.14 µM | – | 2.04 µM | – | 0.448 µM | 0.134 µM | – | 1.05 µM | 0.629 µM | 0.18 µM | – | – | – | – | – | – | – | –
11 | CC(C)CCNC(=O)c1ccc(CNC(=O)/C=C/c2ccc(-c3ccccc3[N+](=O)[O-])o2)cc1 | > 100 µM | > 100 µM | > 100 µM | > 100 µM | 63.5 µM | 62.9 µM | – | > 100 µM | > 100 µM | > 100 µM | > 100 µM | > 100 µM | – | – | – | – | – | – | – | –
12 | CC[n+]1[b-](C(C)(C)C)n(/N=C(\C)C(C)(C)C)[b-](C(C)(C)C)[n+]1CC | > 100 µM | > 100 µM | > 100 µM | > 100 µM | > 100 µM | > 100 µM | > 100 µM | > 100 µM | 56.8 µM | > 100 µM | > 100 µM | – | – | – | – | – | – | – | – | –
13 | Nc1nc(Nc2ccc(Cl)cc2)sc1C(=O)c1cc2ccccc2oc1=O | > 100 µM | – | > 100 µM | 75.8 µM | > 100 µM | > 100 µM | – | > 100 µM | – | > 100 µM | 89.5 µM | > 100 µM | – | – | – | – | – | – | – | –
14 | COc1ccc(OC)c(C2CCc3cnc4nc(N)nc(N)c4c3C2)c1 (configuration not stated) | > 100 µM | > 100 µM | > 100 µM | > 100 µM | > 100 µM | – | > 100 µM | > 100 µM | > 100 µM | > 100 µM | > 100 µM | > 100 µM | – | – | – | – | – | – | – | –
15 | CCNC1CC(C(C)(C)NCC)CC=C1C (configuration not stated) | > 100 µM | > 100 µM | > 100 µM | – | > 100 µM | – | > 100 µM | > 100 µM | > 100 µM | – | > 100 µM | > 100 µM | – | – | – | – | – | – | – | –
16 | O=[N+]([O-])c1cc(Cl)ccc1S(=O)(=O)c1ccccc1 | > 100 µM | > 100 µM | > 100 µM | 53.8 µM | > 100 µM | > 100 µM | > 100 µM | > 100 µM | – | > 100 µM | > 100 µM | > 100 µM | – | – | – | – | – | – | – | –
17 | COc1cc2c[n+](C)c3c4ccccc4ccc3c2cc1OC | 2.65 µM | > 73.3 µM | > 100 µM | 34.2 µM | 9.22 µM | 14.4 µM | 5.57 µM | 12.9 µM | – | > 100 µM | 14.1 µM | – | – | – | – | – | – | – | – | –
18 | COc1cc2c(cc1OC)-c1cc3ccccc3c(=O)n1CCC2 | 38 µM | > 85 µM | 33.9 µM | 86.6 µM | 68.9 µM | 70.5 µM | 74.9 µM | 28 µM | – | > 100 µM | 65.1 µM | 11.5 µM | – | – | – | – | – | – | – | –
19 | COc1cc(Cn2c3c(c4cc(O)ccc42)C(=O)c2ccccc2C3=O)cc(OC)c1 | 54.8 µM | 23.6 µM | – | > 100 µM | 32.1 µM | – | 12.5 µM | 18.7 µM | 25.2 µM | 7.61 µM | 32.2 µM | > 100 µM | – | – | – | – | – | – | – | –
20 | CC(=O)CN=C(C)NNc1ccc([N+](=O)[O-])cc1[N+](=O)[O-] | – | > 100 µM | > 100 µM | > 100 µM | > 100 µM | > 100 µM | > 100 µM | > 100 µM | > 100 µM | > 100 µM | > 100 µM | – | – | – | – | – | – | – | – | –
21 | COc1cccc(/C=N/n2c(-c3ccccc3)n[nH]c2=O)c1 | > 100 µM | 54.4 µM | > 100 µM | > 100 µM | > 100 µM | > 100 µM | – | – | – | > 100 µM | 90.5 µM | – | – | – | – | – | – | – | – | –
22 | CC(C)(C)OC(=O)C(C1NC(C(=O)O)C(C)(C)S1)N1C(=O)c2ccccc2C1=O (configuration not stated) | > 100 µM | > 100 µM | > 100 µM | > 100 µM | > 100 µM | – | > 100 µM | > 100 µM | > 100 µM | > 100 µM | > 100 µM | > 100 µM | – | – | – | – | – | – | – | –
23 | Cn1cc(-c2ccc(CCOC3CCCCO3)cc2)c2c(C#N)cccc21 (configuration not stated) | > 100 µM | > 100 µM | > 100 µM | > 100 µM | > 100 µM | – | > 100 µM | > 100 µM | > 100 µM | – | > 100 µM | > 100 µM | – | – | – | – | – | – | – | –
24 | CN1N=C(c2ccncc2)OC1c1ccc(Cl)c(Cl)c1 (configuration not stated) | > 100 µM | > 100 µM | > 100 µM | > 100 µM | > 100 µM | > 100 µM | > 100 µM | > 100 µM | – | > 100 µM | > 100 µM | > 100 µM | – | – | – | – | – | – | – | –
25 | CCCCCCCCCCCCCCCCCCNc1ccn(C2OC(CO)C(OP(=O)(O)OCC3CCC(n4ccc(N)nc4=O)O3)C2O)c(=O)n1 (configuration not stated) | > 100 µM | > 100 µM | 58.1 µM | > 100 µM | > 100 µM | > 100 µM | > 100 µM | > 100 µM | – | > 100 µM | > 100 µM | 43.6 µM | – | – | – | – | – | – | – | –
26 | Cn1ncc2c(NCCc3ccccc3)nc(Cl)nc21 | 85.5 µM | 67.7 µM | – | 36.7 µM | 79.3 µM | 76.1 µM | > 100 µM | 38.6 µM | – | > 100 µM | > 100 µM | – | – | – | – | – | – | – | – | –
27 | COc1cc(OC)c(/C=N/N=C(\N)NO)c(OC)c1 | 96.4 µM | > 100 µM | > 100 µM | > 100 µM | > 100 µM | > 100 µM | > 100 µM | > 100 µM | > 100 µM | > 100 µM | > 100 µM | – | – | – | – | – | – | – | – | –
28 | CCC(C)(C)NC1=C(NC(C)=O)C(=O)c2ccccc2C1=O | > 75 µM | > 75 µM | 41.3 µM | 58.2 µM | – | > 75 µM | 28.7 µM | 26 µM | > 75 µM | 43.2 µM | 73.7 µM | 43 µM | – | – | – | – | – | – | – | –
29 | CC(C)NC(C)Cc1ccccc1 (configuration not stated) | > 100 µM | > 100 µM | > 100 µM | > 100 µM | – | > 100 µM | > 100 µM | > 100 µM | > 100 µM | > 100 µM | > 100 µM | > 100 µM | – | – | – | – | – | – | – | –
30 | COC(=O)C(Cc1ccccc1)NS(=O)(=O)c1ccc(-c2c3nc(c(-c4ccc(S(=O)(=O)NC(Cc5ccccc5)C(=O)OC)cc4)c4ccc([nH]4)c(-c4ccc(S(=O)(=O)NC(Cc5ccccc5)C(=O)OC)cc4)c4nc(c(-c5ccc(S(=O)(=O)NC(Cc6ccccc6)C(=O)OC)cc5)c5ccc2[nH]5)C=C4)C=C3)cc1 (configuration not stated) | > 100 µM | > 100 µM | > 100 µM | > 100 µM | > 100 µM | – | > 100 µM | > 100 µM | > 100 µM | > 100 µM | > 100 µM | > 100 µM | – | – | – | – | – | – | – | –
